What was measured:
[1] = system: CYP 450 enzymes; conditions: cited from earlier work
[2] = system: benzodiazepine-dependent patient; experiment: Gradual liquid micro-taper withdrawal from benzodiazepine dependency in patients; conditions: for daily dosage at which withdrawal symptoms once again emerge during the taper: patients tapered at the found daily reduction rate, typical value
[3] = Solvent / liquid delivery medium in which the benzo is soluble
[4] = system: benzodiazepine-dependent patient; experiment: Step taper method (comparison, FIG. 3); conditions: step taper abruptly halted at 0.5 mg

SMILES: O=C1Nc2ccc(Cl)cc2C(c2ccccc2)=NC1O (centres unmarked) [Oxazepam]
- metabolism by CYP 450 enzyme pathways [1]: not metabolized by the CYP 450 enzyme pathways

SMILES: O=C1CN=C(c2ccccc2Cl)c2cc([N+](=O)[O-])ccc2N1 [Clonazepam]
- daily dosage at which withdrawal symptoms once again emerge during the taper [2]: ~0.25 mg
- suitability of fat/water emulsion as liquid in which the benzo is soluble ([3]; 4% fat homogenized milk): suitable
- half-life [1]: relatively long half-life
- metabolites [1]: no active metabolites

SMILES: CNC1=Nc2ccc(Cl)cc2C(c2ccccc2)=[N+]([O-])C1 [Chlordiazepoxide]
- daily dosage at which withdrawal symptoms once again emerge during the taper [2]: ~12.5 mg

SMILES: CN1C(=O)CN=C(c2ccccc2)c2cc(Cl)ccc21 [Diazepam]
- daily dosage cut that is often the limit ([2]; daily reduction, increased gradually from 0.05 mg): 0.1 mg
- post withdrawal syndrome after taper ([2]; method of the patent, line 310, taper to zero milligrams): eliminates the post withdrawal syndrome
- symptom escalation during taper (FIG. 3) ([2]; patient on 14.0 mg starting dose, method of the patent, line 310): no symptom escalation from dosage reduction
- daily dosage at which withdrawal symptoms once again emerge during the taper [2]: ~5.0 mg
- amount of ethanol to create a useable solution ([3]; ethanol): about 0.19 mL ethanol per 1.0 mg
- post withdrawal syndrome after step taper [4]: causes the feared post withdrawal syndrome

SMILES: O=C1Nc2ccc(Cl)cc2C(c2ccccc2Cl)=NC1O (centres unmarked) [Lorazepam]
- metabolism by CYP 450 enzyme pathways [1]: not metabolized by the CYP 450 enzyme pathways

SMILES: Cc1nnc2n1-c1ccc(Cl)cc1C(c1ccccc1)=NC2 [Alprazolam]
- correct solvent [3]: ethanol

— patent publication US9301963B2, “Treatment tool and method of gradual withdrawal from bezodiazepine dependency” (priority 2011, dated 2016)
